Like-named read-outs stand apart in the source and are kept apart here.
Assays:
Format in all cases: biochemical
[1] = molecular target: T1, HDAC3 (complex of full length human HDAC3 with human NCOR2 amino acids 395-489) (Homo sapiens, UniProt O15379); assay: HDAC enzymatic assay, HDAC3
T1 construct: complex of full length human HDAC3 with a C-terminal His-tag; His-tag (C); host or cells: baculovirus expression system
Procedure: (§1) Each compound was dissolved in DMSO, and progressively diluted solutions were used for testing. […] Upon its deacetylation, the fluorophore was released given rise to fluorescence emission which was detected by a fluorimeter, and the IC50 values of the compounds were determined by analyzing dose-response inhibition curves.

HDAC11 = molecular target: T2, HDAC11 (Homo sapiens, UniProt Q96DB2); assay: HDAC enzymatic assay, HDAC11
T2 sequence (Q96DB2 1-347): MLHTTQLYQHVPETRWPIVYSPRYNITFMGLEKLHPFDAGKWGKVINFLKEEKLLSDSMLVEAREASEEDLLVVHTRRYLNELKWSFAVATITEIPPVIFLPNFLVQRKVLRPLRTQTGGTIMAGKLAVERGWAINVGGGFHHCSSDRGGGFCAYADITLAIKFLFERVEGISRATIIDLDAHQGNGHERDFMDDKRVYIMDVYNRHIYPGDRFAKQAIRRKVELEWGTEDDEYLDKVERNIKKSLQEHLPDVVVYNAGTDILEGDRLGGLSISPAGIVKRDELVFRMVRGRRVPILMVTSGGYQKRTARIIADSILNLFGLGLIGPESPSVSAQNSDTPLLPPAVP
Procedure: as §1

HDAC1 = HDAC1 (Homo sapiens, UniProt Q13547); assay: HDAC enzymatic assay, HDAC1
Chain of HDAC1 (Q13547 whole entry): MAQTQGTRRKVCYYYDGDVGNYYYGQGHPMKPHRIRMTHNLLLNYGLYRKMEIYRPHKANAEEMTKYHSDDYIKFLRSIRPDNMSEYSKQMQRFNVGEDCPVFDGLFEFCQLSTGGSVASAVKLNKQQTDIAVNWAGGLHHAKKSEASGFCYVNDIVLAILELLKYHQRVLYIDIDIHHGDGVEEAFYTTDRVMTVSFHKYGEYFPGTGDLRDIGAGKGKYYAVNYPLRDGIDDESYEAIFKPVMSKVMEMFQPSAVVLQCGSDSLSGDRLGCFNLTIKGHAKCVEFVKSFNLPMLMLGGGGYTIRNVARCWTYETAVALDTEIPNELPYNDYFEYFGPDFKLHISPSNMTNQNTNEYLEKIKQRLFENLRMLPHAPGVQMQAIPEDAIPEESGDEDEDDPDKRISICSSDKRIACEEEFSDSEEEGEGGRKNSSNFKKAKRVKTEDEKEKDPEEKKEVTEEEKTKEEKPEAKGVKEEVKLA
Procedure: as §1

HDAC4 = HDAC4 (Homo sapiens, UniProt P56524); assay: HDAC enzymatic assay, HDAC4
Chain of HDAC4 (P56524 whole entry): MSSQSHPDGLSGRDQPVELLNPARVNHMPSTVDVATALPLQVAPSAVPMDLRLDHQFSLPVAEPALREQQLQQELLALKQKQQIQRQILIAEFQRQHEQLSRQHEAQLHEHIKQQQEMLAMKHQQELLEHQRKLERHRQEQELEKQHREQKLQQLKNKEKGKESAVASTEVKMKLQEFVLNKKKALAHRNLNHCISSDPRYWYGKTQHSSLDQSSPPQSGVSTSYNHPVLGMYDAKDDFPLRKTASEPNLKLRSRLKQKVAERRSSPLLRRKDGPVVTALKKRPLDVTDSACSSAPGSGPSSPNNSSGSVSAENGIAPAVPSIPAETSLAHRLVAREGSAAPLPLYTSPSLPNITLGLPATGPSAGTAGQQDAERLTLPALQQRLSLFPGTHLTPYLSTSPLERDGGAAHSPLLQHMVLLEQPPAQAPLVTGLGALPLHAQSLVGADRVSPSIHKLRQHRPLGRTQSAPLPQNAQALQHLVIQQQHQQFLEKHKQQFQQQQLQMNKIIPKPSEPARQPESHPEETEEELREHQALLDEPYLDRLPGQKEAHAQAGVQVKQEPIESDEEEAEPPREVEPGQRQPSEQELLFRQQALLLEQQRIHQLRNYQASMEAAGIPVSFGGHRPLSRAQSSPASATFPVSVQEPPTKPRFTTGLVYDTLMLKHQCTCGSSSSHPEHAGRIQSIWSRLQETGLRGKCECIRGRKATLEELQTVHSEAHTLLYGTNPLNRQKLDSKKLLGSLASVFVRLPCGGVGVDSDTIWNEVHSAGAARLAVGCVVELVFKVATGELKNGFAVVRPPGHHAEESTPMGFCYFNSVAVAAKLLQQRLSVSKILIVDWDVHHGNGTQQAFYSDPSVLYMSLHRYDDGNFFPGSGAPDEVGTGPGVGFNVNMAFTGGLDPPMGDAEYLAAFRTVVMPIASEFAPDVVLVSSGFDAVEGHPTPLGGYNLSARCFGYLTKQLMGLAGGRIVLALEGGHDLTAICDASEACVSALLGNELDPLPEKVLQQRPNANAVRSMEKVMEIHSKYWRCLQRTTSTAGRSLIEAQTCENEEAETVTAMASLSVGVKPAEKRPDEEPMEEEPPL
Procedure: as §1

HDAC2 = HDAC2 (Homo sapiens, UniProt Q92769); assay: HDAC enzymatic assay, HDAC2
Chain of HDAC2 (Q92769 whole entry): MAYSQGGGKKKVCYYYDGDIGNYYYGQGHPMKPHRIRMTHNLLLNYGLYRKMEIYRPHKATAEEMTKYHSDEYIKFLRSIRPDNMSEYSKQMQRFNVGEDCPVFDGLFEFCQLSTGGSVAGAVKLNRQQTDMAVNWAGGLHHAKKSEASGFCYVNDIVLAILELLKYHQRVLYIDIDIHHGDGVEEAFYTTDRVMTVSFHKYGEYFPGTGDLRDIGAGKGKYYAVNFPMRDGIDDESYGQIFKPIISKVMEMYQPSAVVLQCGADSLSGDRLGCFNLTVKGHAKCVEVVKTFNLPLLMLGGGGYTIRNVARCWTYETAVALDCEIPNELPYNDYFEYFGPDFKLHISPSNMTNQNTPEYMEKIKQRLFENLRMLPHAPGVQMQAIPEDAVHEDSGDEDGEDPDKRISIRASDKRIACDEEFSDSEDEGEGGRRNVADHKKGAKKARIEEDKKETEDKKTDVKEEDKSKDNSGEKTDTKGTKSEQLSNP
Procedure: as §1

HDAC6 = molecular target: T3, HDAC6 (Homo sapiens, UniProt Q9UBN7); assay: HDAC enzymatic assay, HDAC6
T3 sequence (Q9UBN7 1-1215): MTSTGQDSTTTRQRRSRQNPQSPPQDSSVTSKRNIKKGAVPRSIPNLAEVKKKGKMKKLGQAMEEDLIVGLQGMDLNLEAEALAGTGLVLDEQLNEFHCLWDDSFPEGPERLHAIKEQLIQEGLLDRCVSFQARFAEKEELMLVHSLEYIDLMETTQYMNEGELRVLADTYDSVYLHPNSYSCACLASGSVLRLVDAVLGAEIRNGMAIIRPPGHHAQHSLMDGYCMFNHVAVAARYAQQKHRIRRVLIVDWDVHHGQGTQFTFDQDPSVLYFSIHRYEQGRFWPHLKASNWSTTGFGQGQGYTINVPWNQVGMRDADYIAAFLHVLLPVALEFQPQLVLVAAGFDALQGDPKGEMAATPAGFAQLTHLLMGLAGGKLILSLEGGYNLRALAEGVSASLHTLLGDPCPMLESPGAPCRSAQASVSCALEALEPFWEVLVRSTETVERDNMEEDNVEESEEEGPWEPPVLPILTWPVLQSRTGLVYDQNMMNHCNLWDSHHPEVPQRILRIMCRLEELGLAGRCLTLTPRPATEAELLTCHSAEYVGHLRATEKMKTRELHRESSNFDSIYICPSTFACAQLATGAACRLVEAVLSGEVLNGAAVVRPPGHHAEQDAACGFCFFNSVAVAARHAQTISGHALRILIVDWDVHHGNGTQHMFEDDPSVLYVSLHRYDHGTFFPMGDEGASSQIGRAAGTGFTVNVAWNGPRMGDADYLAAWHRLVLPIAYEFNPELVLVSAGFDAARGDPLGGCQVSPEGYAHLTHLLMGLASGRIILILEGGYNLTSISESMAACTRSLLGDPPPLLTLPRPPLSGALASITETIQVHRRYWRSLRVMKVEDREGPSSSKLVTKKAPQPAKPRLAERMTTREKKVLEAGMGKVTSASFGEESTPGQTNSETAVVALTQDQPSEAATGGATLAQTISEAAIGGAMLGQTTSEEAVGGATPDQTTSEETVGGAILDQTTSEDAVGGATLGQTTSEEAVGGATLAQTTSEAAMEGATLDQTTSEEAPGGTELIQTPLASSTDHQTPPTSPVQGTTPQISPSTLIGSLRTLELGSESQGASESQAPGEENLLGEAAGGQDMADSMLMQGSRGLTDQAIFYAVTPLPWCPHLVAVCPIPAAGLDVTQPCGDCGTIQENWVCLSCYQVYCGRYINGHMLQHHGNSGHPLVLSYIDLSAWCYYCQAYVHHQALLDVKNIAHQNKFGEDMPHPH
Procedure: as §1

HDAC10 = molecular target: T4, HDAC10 (Homo sapiens, UniProt Q969S8); assay: HDAC enzymatic assay, HDAC10
T4 sequence (Q969S8 1-669): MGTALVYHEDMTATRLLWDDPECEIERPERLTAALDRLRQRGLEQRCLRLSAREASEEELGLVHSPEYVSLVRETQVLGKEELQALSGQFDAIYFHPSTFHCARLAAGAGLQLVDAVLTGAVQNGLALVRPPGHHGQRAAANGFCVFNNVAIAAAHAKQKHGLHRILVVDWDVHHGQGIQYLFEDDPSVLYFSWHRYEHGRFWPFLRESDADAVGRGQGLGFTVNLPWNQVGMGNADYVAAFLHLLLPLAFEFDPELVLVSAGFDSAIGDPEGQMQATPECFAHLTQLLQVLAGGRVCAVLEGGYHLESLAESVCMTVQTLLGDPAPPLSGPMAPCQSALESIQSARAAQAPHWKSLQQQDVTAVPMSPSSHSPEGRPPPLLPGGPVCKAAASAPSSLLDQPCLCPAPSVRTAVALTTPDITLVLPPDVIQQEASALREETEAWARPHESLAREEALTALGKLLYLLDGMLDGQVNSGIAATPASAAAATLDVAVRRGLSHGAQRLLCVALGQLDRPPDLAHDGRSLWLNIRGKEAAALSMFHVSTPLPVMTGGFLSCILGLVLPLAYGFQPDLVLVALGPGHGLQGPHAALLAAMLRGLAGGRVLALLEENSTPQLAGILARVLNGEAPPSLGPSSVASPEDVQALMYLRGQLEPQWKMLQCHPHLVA
Procedure: as §1

[2] = fluorogenic tetrapeptide RHKKAc substrate 10 μM, read-out: HDAC isoforms IC50 (nM), 3
[3] = fluorogenic tetrapeptide RHKKAc substrate 10 μM, read-out: HDAC isoforms IC50 (nM), 11
[4] = fluorogenic tetrapeptide RHKKAc substrate 10 μM, read-out: HDAC isoforms IC50 (nM), 1
[5] = fluorogenic tetrapeptide RHKKAc substrate 10 μM, read-out: HDAC isoforms IC50 (nM), 4
[6] = fluorogenic tetrapeptide RHKKAc substrate 10 μM, read-out: HDAC isoforms IC50 (nM), 2
[7] = fluorogenic tetrapeptide RHKKAc substrate 10 μM, read-out: HDAC isoforms IC50 (nM), 6
[8] = fluorogenic tetrapeptide RHKKAc substrate 10 μM, read-out: HDAC isoforms IC50 (nM), 10

T1 sequence (O15379 whole entry, the tested form may be a part): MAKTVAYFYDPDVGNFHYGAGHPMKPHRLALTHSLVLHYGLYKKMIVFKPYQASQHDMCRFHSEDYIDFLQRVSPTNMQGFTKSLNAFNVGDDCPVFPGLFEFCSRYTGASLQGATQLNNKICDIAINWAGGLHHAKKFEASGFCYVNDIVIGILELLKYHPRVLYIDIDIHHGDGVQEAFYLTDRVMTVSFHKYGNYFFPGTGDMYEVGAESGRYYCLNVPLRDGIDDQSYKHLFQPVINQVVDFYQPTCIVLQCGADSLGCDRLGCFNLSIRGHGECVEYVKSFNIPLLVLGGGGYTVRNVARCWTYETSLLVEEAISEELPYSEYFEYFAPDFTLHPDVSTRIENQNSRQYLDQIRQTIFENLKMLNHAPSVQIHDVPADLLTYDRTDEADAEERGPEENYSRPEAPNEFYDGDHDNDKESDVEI
T1 sequence (Q9Y618 395-489 partner limits assumed): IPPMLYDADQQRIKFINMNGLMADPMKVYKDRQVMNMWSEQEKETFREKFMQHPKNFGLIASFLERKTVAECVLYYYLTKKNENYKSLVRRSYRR

Work on `O=C1CC[C@H](C(=O)N[C@@H](CCCCCS)C(=O)Nc2ccccc2)N1` [Example 33, (R)-5-Oxo-pyrrolidine-2-carboxylic acid ((S)-6-mercapto-1-phenylcarbamoyl-hexyl)amide] yielded an IC50 ([1]; Table 2, thio (SH) vs hydroxamate (CONHOH) MBG analogues, read-out: HDAC isoforms, 3 (IC50)) of less than 50 nM, an IC50 [1, 2] of less than 50 nM and an IC50 (HDAC11; Table 2, thio (SH) vs hydroxamate (CONHOH) MBG analogues, read-out: HDAC isoforms, 11 (IC50)) of less than 50 nM. The IC50 (HDAC11; [3]) was less than 50 nM, the IC50 (HDAC1; Table 2, thio (SH) vs hydroxamate (CONHOH) MBG analogues, read-out: HDAC isoforms, 1 (IC50)) was less than 50 nM and the IC50 (HDAC1; [4]) was less than 50 nM. The IC50 (HDAC4; Table 2, thio (SH) vs hydroxamate (CONHOH) MBG analogues, read-out: HDAC isoforms, 4 (IC50)) was 50 to 100 nM, the IC50 (HDAC4; [5]) was 50 to 100 nM and the IC50 (HDAC2; Table 2, thio (SH) vs hydroxamate (CONHOH) MBG analogues, read-out: HDAC isoforms, 2 (IC50)) was 50 to 100 nM. The IC50 (HDAC2; [6]) was 50 to 100 nM, the IC50 (HDAC6; Table 2, thio (SH) vs hydroxamate (CONHOH) MBG analogues, read-out: HDAC isoforms, 6 (IC50)) was less than 50 nM and the IC50 (HDAC6; [7]) was less than 50 nM. For the same molecule, the IC50 (HDAC10; Table 2, thio (SH) vs hydroxamate (CONHOH) MBG analogues, read-out: HDAC isoforms, 10 (IC50)) was less than 50 nM and the IC50 (HDAC10; [8]) was less than 50 nM.
Work on `Cc1cccc(CCNC(=O)[C@H](CCCCCS)NC(=O)[C@@H]2CCCC(=O)N2)c1` [Example 34, (S)-6-Oxo-piperidine-2-carboxylic acid [(S)-6-mercapto-1-(2-m-tolyl-ethylcarbamoyl)hexyl]-amide] yielded an IC50 [1, 2] of 100 to 500 nM, an IC50 (HDAC11; [3]) of 50 to 100 nM and an IC50 (HDAC1; [4]) of 50 to 100 nM. The IC50 (HDAC4; [5]) was less than 50 nM, the IC50 (HDAC2; [6]) was 100 to 500 nM and the IC50 (HDAC6; [7]) was less than 50 nM. The IC50 (HDAC10; [8]) was 50 to 100 nM.
`O=C1NCCC[C@H]1C(=O)N[C@@H](CCCCCS)C(=O)Nc1ccccc1` [Example 35, (R)-2-Oxo-piperidine-3-carboxylic acid ((S)-6-mercapto-1-phenylcarbamoyl-hexyl)amide] was tested, and the IC50 [1, 2] was less than 50 nM, the IC50 (HDAC11; [3]) was less than 50 nM and the IC50 (HDAC1; [4]) was less than 50 nM. It also gave an IC50 (HDAC4; [5]) of less than 50 nM, an IC50 (HDAC2; [6]) of less than 50 nM and an IC50 (HDAC6; [7]) of less than 50 nM. The IC50 (HDAC10; [8]) was less than 50 nM.
For `O=C1NCCC[C@@H]1C(=O)N[C@@H](CCCCCS)C(=O)Nc1ccccc1` [Example 36, (S)-2-Oxo-piperidine-3-carboxylic acid ((S)-6-mercapto-1-phenylcarbamoyl-hexyl)amide], the IC50 [1, 2] was less than 50 nM, the IC50 (HDAC11; [3]) was less than 50 nM and the IC50 (HDAC1; [4]) was less than 50 nM. It also gave an IC50 (HDAC4; [5]) of less than 50 nM, an IC50 (HDAC2; [6]) of less than 50 nM and an IC50 (HDAC6; [7]) of less than 50 nM. For the same molecule, the IC50 (HDAC10; [8]) was less than 50 nM.
With `O=C1CCC[C@H](C(=O)N[C@@H](CCCCCS)C(=O)Nc2ccccc2)N1` [Example 37, (R)-6-Oxo-piperidine-2-carboxylic acid ((S)-6-mercapto-1-phenylcarbamoyl-hexyl)amide] the IC50 [1, 2] was less than 50 nM, the IC50 (HDAC11; [3]) was less than 50 nM and the IC50 (HDAC1; [4]) was less than 50 nM. The IC50 (HDAC4; [5]) was less than 50 nM, the IC50 (HDAC2; [6]) was less than 50 nM and the IC50 (HDAC6; [7]) was less than 50 nM. It also gave an IC50 (HDAC10; [8]) of less than 50 nM.
For `Cc1cccc(NC(=O)[C@H](CCCCCS)NC(=O)[C@@H]2CCCC(=O)N2)c1` [Example 38, (S)-6-Oxo-piperidine-2-carboxylic acid ((S)-6-mercapto-1-m-tolylcarbamoyl-hexyl)amide], the IC50 [1, 2] was less than 50 nM, the IC50 (HDAC11; [3]) was less than 50 nM and the IC50 (HDAC1; [4]) was less than 50 nM. For the same molecule, the IC50 (HDAC4; [5]) was 100 to 500 nM, the IC50 (HDAC2; [6]) was less than 50 nM and the IC50 (HDAC6; [7]) was less than 50 nM. For the same molecule, the IC50 (HDAC10; [8]) was less than 50 nM.
`Cc1ccc(NC(=O)[C@H](CCCCCS)NC(=O)[C@@H]2CCCC(=O)N2)cc1` [Example 39, (S)-6-Oxo-piperidine-2-carboxylic acid ((S)-6-mercapto-1-p-tolylcarbamoyl-hexyl)amide] showed an IC50 [1, 2] of less than 50 nM, an IC50 (HDAC11; [3]) of less than 50 nM and an IC50 (HDAC1; [4]) of less than 50 nM. The IC50 (HDAC4; [5]) was 100 to 500 nM, the IC50 (HDAC2; [6]) was 50 to 100 nM and the IC50 (HDAC6; [7]) was less than 50 nM. It also gave an IC50 (HDAC10; [8]) of less than 50 nM.
With `CN1C(=O)CCC[C@H]1C(=O)N[C@@H](CCCCCS)C(=O)Nc1ccccc1` [Example 40, (S)-1-Methyl-6-oxo-piperidine-2-carboxylic acid ((S)-6-mercapto-1-phenylcarbamoyl-hexyl)-amide] the IC50 [1, 2] was less than 50 nM, the IC50 (HDAC11; [3]) was less than 50 nM and the IC50 (HDAC1; [4]) was less than 50 nM. The IC50 (HDAC4; [5]) was 100 to 500 nM, the IC50 (HDAC2; [6]) was 50 to 100 nM and the IC50 (HDAC6; [7]) was less than 50 nM. It also gave an IC50 (HDAC10; [8]) of less than 50 nM.

From US8927533B2, “Thio derivatives bearing lactams as potent HDAC inhibitors and their uses as medicaments” (SIGMA-TAU Industrie Farmaceutiche Riunite S.p.A., priority 2011, dated 2015)
